Results from patent US9725414B2, “Fungicidal N-bicycloalkyl and N-tricycloalkyl pyrazole-4-(thio)carboxamide derivatives” (priority 2011, dated 2017).

Legend:
[1] = system: Botrytis cinerea; test: Example P: in vivo preventive test on Botrytis cinerea (grey mould), gherkin plants; settings: 500 ppm of active ingredient, grading 4 to 5 days after contamination
Summary of the method: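 Gherkin plants at Z11 cotyledon stage sprayed preventively with active ingredient, then inoculated 24 h later with B. cinerea spores (50 000/mL) in PDB/fructose nutrient solution. Incubation at 17 °C and 90% RH; % efficacy graded 4–5 days post-inoculation against solvent-treated controls.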

[2] = system: Septoria tritici; test: Example I: in vivo preventive test on Septoria tritici (wheat), acetone/tween/DMSO preparation; settings: 500 ppm of active ingredient, grading 24 days after contamination
Summary of the method: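 Scipion wheat grown at 22° C, sprayed at 1-leaf stage (10 cm); controls received acetone/tween/DMSO/water without active. Inoculated 24 h later with S. tritici spores (500 000/mL), held 72 h at 18° C, 100% RH, then 21 days at 90% RH. % efficacy vs controls scored 24 days post-inoculation.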

[3] = system: Sphaerotheca fuliginea; test: Example B: in vivo preventive test on Sphaerotheca fuliginea (powdery mildew on cucurbits), gherkin plants; settings: 500 ppm of active ingredient, grading 12 days after contamination
Summary of the method: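 Gherkin plants grown at 24 °C were sprayed with compound at the Z11 cotyledon stage; controls received acetone/tween/DMSO/water without active. 24 h later, cotyledons were inoculated by spraying with Sphaerotheca fuliginea spores (100 000 spores per mL).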

[4] = system: Alternaria brassicae; test: Example D: in vivo preventive test on Alternaria brassicae (leaf spot on radish); settings: 500 ppm of active ingredient, grading 6 days after contamination
Summary of the method: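 Radish plants at cotyledon stage were sprayed with compound; controls got the acetone/tween/DMSO/water mix alone. After 24 h they were inoculated with Alternaria brassicae spores (50 000 spores per mL) and kept at 20 °C, 100% relative humidity. % efficacy versus controls was graded 6 days post-inoculation.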

[5] = system: Pyrenophora teres; test: Example F: in vivo preventive test on Pyrenophora teres (barley), acetone/tween/DMSO preparation; settings: 500 ppm of active ingredient, barley, grading 14 days after contamination
Summary of the method: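 Barley ("Plaisant") grown at 22° C was sprayed at the 1-leaf stage (10 cm) with active ingredient in acetone/tween/DMSO/water, with solvent-only controls. After 24 h, leaves were inoculated with Pyrenophora teres spores (12 000 spores per mL) from 12-day cultures. % efficacy versus controls graded 14 days post-contamination.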

[6] = system: Uromyces appendiculatus; test: Example Q: in vivo preventive test on Uromyces appendiculatus (bean rust); settings: Uromyces appendiculatus on bean plants, 500 ppm of active ingredient, grading 11 days after contamination
Summary of the method: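 Saxa bean plants at 2-leaf stage, grown at 24° C., sprayed preventively with compound; 24 h later inoculated with U. appendiculatus spores (150 000 spores per mL). Percent efficacy graded 11 days after inoculation versus solvent-treated controls.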

[7] = system: Puccinia recondita; test: Example M: in vivo preventive test on Puccinia recondita (brown rust on wheat); settings: 500 ppm of active ingredient, grading 12 days after contamination
Summary of the method: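 Wheat (Scipion) sprayed with compound at 1-leaf stage, grown at 22° C. Inoculated 24 h later with a spore suspension at 100 000 spores per mL. Efficacy (%) graded 12 days after inoculation against solvent-treated controls.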

[8] = system: Pyricularia oryzae; format: in vivo; settings: Pyricularia oryzae on rice plants, preventive, 500 ppm of active ingredient, grading 6 days after contamination

Structure (SMILES): Cn1nc(C(F)F)c(C(=O)N(C2CC2)C2CCCC3CCCCC32)c1F (mixture of isomers) [Example 31]
- Efficacy [1]: 100%
- Efficacy [2]: 96%
- Efficacy [3]: 100%
- Efficacy [4]: 100%
- Efficacy [5]: 97%
- Efficacy [6]: 100%
- Efficacy [7]: 100%
- Efficacy [8]: 80%
